For 16 molecules, CC50 and EC50 results are on record in ChEMBL document CHEMBL3734667 (Bioorg Med Chem, 2015).

Data set [1] can be described thus: Cytotoxicity against human MT4 cells assessed as cell viability after 96 hrs by MTT assay. In kind it is cell-based.
A short description of data set [2]: Cytotoxicity against MDBK cells assessed as cell viability after 48 to 96 hrs by MTT assay. The format is cell-based, Bos taurus. The settings on record: cattle.
Data set [3] in a line: Cytotoxicity against BHK cells assessed as cell viability after 48 to 96 hrs by MTT assay. In kind it is cell-based, Mesocricetus auratus. The settings on record: hamster. Background: Tetrazolium dyes change colour on reduction, which living cells bring about.
Data set [4] in a line: Cytotoxicity against african green monkey Vero 76 cells assessed as cell viability after 48 to 96 hrs by crystal violet staining method. In kind it is cell-based. The conditions noted are these: chlorocebus sabaeus.
For data set [5], the system named is Bovine viral diarrhea virus 1. In words: Antiviral activity against BVDV infected in MDBK cells assessed as inhibition of virus-induced cytopathogenicity after 3 to 4 days by MTT assay. The format is functional, organism-based. The conditions noted are these: Bovine viral diarrhea virus isolates and strains.
The subject of data set [6] is Yellow fever virus. In words: Antiviral activity against YFV infected in BHK-21 cells assessed as inhibition of virus-induced cytopathogenicity after 3 to 4 days by MTT assay. In kind it is functional, organism-based. On the technique in general: Cytopathic effects are the visible damage that an infection or toxin causes in cultured cells.
Data set [7] relates to Mammalian orthoreovirus 1. Kind of data set: Antiviral activity against Reo-1 virus infected in BHK-21 cells assessed as inhibition of virus-induced cytopathogenicity after 3 to 4 days by MTT assay. The format is functional, cell-based. The conditions noted are these: Mammalian orthoreovirus 1, BHK-21.
Data set [8] relates to Poliovirus 1. Kind of data set: Antiviral activity against Human poliovirus 1 Sabin infected in african green monkey Vero76 cells assessed as inhibition of virus-induced cytopathogenicity by plaque reduction assay. The format is functional, organism-based. The conditions noted are these: Enterovirus C, Vero 76.
Data set [9] relates to Human immunodeficiency virus 1. In words: Antiviral activity against HIV-1 infected in MT4 cells assessed as inhibition of virus-induced cytopathogenicity after 4 days by MTT assay. The format is functional, organism-based. The conditions noted are these: Human immunodeficiency virus 1, MT4, 96 h.
The test system of data set [10] is Human alphaherpesvirus 1. In words: Antiviral activity against HSV1. The format is functional, organism-based.
In data set [11] the test system is Vesicular stomatitis virus. Kind of data set: Antiviral activity against VSV. The format is functional, organism-based.
The test system of data set [12] is Coxsackievirus B5. Kind of data set: Antiviral activity against human CVB5 infected in african green monkey Vero76 cells assessed as inhibition of virus-induced cytopathogenicity after 3 days by plaque reduction assay. The conditions noted are these: Enterovirus B, Vero 76, 72 h. In kind it is functional, organism-based.
Data set [13] relates to Human orthopneumovirus. In words: Antiviral activity against human RSV infected in african green monkey Vero76 cells assessed as inhibition of virus-induced cytopathogenicity after 5 days by plaque reduction assay. In kind it is functional, organism-based. The conditions noted are these: human respiratory syncytial virus, Vero 76, 120 h.
In data set [14] the test system is Vaccinia virus. In words: Antiviral activity against Vaccinia virus. The format is functional, organism-based. The conditions noted are these: Orthopoxvirus vaccinia.

As for `Cc1cc2nn(C3CCCO3)nc2cc1C` (stereo not drawn), the CC50 at 96 h in [1] is more than 100 µM. Further, the CC50 in data set [2], in data set [3] and in [4] was more than 100 µM in each case. Also, the EC50 in data set [5], in [6], in data set [7], in [8], in [9] and in data set [10] was more than 100 µM each time. For the same molecule, in data set [11], the EC50 was more than 100 µM.

With `FC(F)(F)c1ccc2nn(Cc3ccc(Cl)cc3)nc2c1`, in data set [1], the CC50 at 96 h was more than 100 µM. Besides, the CC50 in data set [2], in [3] and in data set [4] was more than 100 µM throughout. In addition, the EC50 in data set [5], in [6], in [7], in [12], in data set [13] and in data set [8] was more than 100 µM throughout. The EC50 in data set [9], in [10], in data set [11] and in [14] was more than 100 µM in each case.

As to `Nc1nc2c(ncn2COCCO)c(=O)[nH]1` [ACYCLOVIR], the CC50 at 96 h in data set [1] is more than 100 µM. For the same molecule, the half-maximal cytotoxic concentration (CC50) in [2], in data set [3] and in [4] was more than 100 µM in each case. Also, the concentration giving a half-maximal response (EC50) in data set [5] is more than 100 µM; in [6], more than 100 µM; in data set [12], more than 100 µM; in data set [13], more than 100 µM; in data set [8], more than 100 µM; in data set [10], 1.2 µM. Also, the EC50 in data set [11] and in [14] was more than 100 µM each time.

For the molecule `O=C(O)COc1ccc(-n2nc3ccccc3[n+]2[O-])cc1`, in data set [1], the CC50 at 96 h is more than 100 µM. The half-maximal cytotoxic concentration (CC50) in data set [2], in [3] and in data set [4] was more than 100 µM in each case. Further, the EC50 in data set [5], in data set [6], in [7], in [12], in data set [13] and in [8] was more than 100 µM in each case. Moreover, the EC50 in [9], in [11] and in [14] was more than 100 µM throughout.

Turning to `COc1ccc(-n2nc3cc(Cl)c(Cl)cc3n2)cc1`, the CC50 at 96 h in data set [1] was more than 100 µM. Moreover, the CC50 in data set [2], in [3] and in [4] was more than 100 µM each time. Moreover, the EC50 in data set [5], in data set [6], in data set [7], in [12], in data set [13] and in [8] was more than 100 µM in each case. Further, the 50% effective concentration (EC50) in data set [9], in data set [11] and in [14] was more than 100 µM in each case.

`C[C@@H](Oc1ccc(-n2nc3ccccc3n2)cc1)C(=O)O`: the CC50 at 96 h in [1] is more than 100 µM. Moreover, the CC50 in data set [2], in data set [3] and in data set [4] was more than 100 µM each time. In addition, the EC50 in data set [5], in data set [6], in data set [12], in data set [13], in data set [8] and in [9] was more than 100 µM in each case. The EC50 in data set [11] and in data set [14] was more than 100 µM in each case.

In the case of `C[C@H](Oc1ccc(-n2nc3ccccc3n2)cc1)C(=O)O`, in data set [1], the CC50 at 96 h is more than 100 µM. The CC50 in data set [2], in data set [3] and in data set [4] was more than 100 µM each time. Also, the EC50 in data set [5], in data set [6], in data set [12], in data set [13], in data set [8] and in data set [9] was more than 100 µM in each case. Also, the EC50 in data set [11] and in data set [14] was more than 100 µM each time.

For `Clc1ccc(Cn2nc3cc(Cl)c(Cl)cc3n2)cc1`, the CC50 at 96 h in data set [1] was more than 100 µM. Also, the CC50 in data set [2], in [3] and in data set [4] was more than 100 µM each time. The EC50 in data set [5], in [6], in [7], in [12], in data set [13] and in data set [8] was more than 100 µM throughout. Besides, the EC50 in [9], in [10], in data set [11] and in data set [14] was more than 100 µM throughout.

For `COc1ccc(Cn2nnc3cc(Cl)c(Cl)cc32)cc1`, in data set [1], the CC50 at 96 h is more than 100 µM. The CC50 in [2], in [3] and in data set [4] was more than 100 µM throughout. In addition, the EC50 in data set [5], in data set [6], in data set [7], in data set [12], in [13] and in data set [8] was more than 100 µM in each case. Besides, the EC50 in [9], in data set [10], in data set [11] and in data set [14] was more than 100 µM in each case.

Take `FC(F)(F)c1ccc2nn(Cc3ccccc3)nc2c1`: the CC50 at 96 h in data set [1] is more than 100 µM. Besides, the CC50 in [2], in data set [3] and in [4] was more than 100 µM throughout. Further, the EC50 in [5], in data set [6], in data set [7], in data set [12], in [13] and in data set [8] was more than 100 µM each time. Also, the EC50 in data set [9], in [10], in data set [11] and in data set [14] was more than 100 µM in each case.

Regarding `COc1ccc(Cn2nc3cc(Cl)c(Cl)cc3n2)cc1`, the CC50 at 96 h in data set [1] is more than 100 µM. Besides, the CC50 in [2], in data set [3] and in data set [4] was more than 100 µM throughout. The EC50 in [5], in [6], in data set [7], in data set [12], in data set [13] and in [8] was more than 100 µM each time. Also, the EC50 in [9], in data set [10], in data set [11] and in data set [14] was more than 100 µM each time.

With `Clc1cc2nn(C3CCCCO3)nc2cc1Cl` (stereo not drawn), in [1], the CC50 at 96 h was more than 100 µM. Also, the CC50 in [2] is more than 100 µM; in [3], more than 100 µM; in data set [4] it was not below 100 µM. The EC50 in [5] is more than 100 µM; in [6], more than 100 µM; in data set [7], more than 100 µM; in [8], 60 µM; in [9] it was more than 100 µM; in data set [10], more than 100 µM. In data set [11], this molecule had an EC50 of more than 100 µM.

Turning to `Clc1cc2nn(Cc3ccccc3)nc2cc1Cl`, the CC50 at 96 h in data set [1] is more than 100 µM. Moreover, the CC50 in data set [2], in data set [3] and in [4] was more than 100 µM throughout. Moreover, the EC50 in data set [5], in data set [6], in [7], in data set [12], in data set [13] and in data set [8] was more than 100 µM throughout. Moreover, the EC50 in data set [9], in data set [10], in [11] and in [14] was more than 100 µM in each case.

On to `COc1ccc(Cn2nc3ccc(C(F)(F)F)cc3n2)cc1`, for which the CC50 at 96 h in [1] was more than 100 µM. Further, the CC50 in [2], in data set [3] and in data set [4] was more than 100 µM each time. Besides, the EC50 in [5], in data set [6], in data set [7], in [12], in data set [13] and in data set [8] was more than 100 µM in each case. Also, the EC50 in [9], in data set [10], in [11] and in [14] was more than 100 µM in each case.

Consider `O=C(O)COc1ccc(-n2nc3ccc(Cl)cc3[n+]2[O-])cc1`, for which, in data set [1], the CC50 at 96 h is more than 100 µM. In addition, the 50% cytotoxic concentration (CC50) in data set [2] is more than 100 µM; in data set [3] it was more than 100 µM; in data set [4], 100 µM. Besides, the EC50 in [5], in data set [6], in data set [7], in data set [12], in data set [13] and in data set [8] was more than 100 µM in each case. The 50% effective concentration (EC50) in data set [9], in data set [11] and in data set [14] was more than 100 µM throughout.

In the case of `[O-][n+]1c2ccccc2nn1-c1ccc(O)cc1`, the CC50 at 96 h in data set [1] was more than 100 µM. Also, the CC50 in data set [2], in data set [3] and in [4] was more than 100 µM each time. The EC50 in data set [5], in data set [6], in data set [7], in data set [12], in data set [13] and in [8] was more than 100 µM throughout. Besides, the EC50 in [9], in data set [11] and in data set [14] was more than 100 µM throughout.

What is called CC50 is the concentration that lowers cell viability or growth by half. As usually defined, the EC50 is the midpoint of the concentration-response curve.
